# From PubChem BioAssay AID1963425 (Molecular Pharmacology Branch, DTP, NCI, 2024)
# Tested on: 323965-272-R-J2-PDC complex spheroid growth, % test/control
# Experiment: Anticancer human tumor 323965-272-R-J2-PDC patient-derived pancreatic carcinoma cell line growth inhibition [Asc]
# Conditions: for IC50: curve of first compound; for viability, T/C: stronger effect = lower value
# How it was run: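 Spheroid model: tumor line + HUVEC + hMSC. Single agents and combinations; top conc. at/near clinical Cmax (10 microM if undetermined), half-log dilutions. DMSO stocks at 800-fold test concentration.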
# [1] = second compound 0.00316 µM, first compound 0.0316 µM
# [2] = second compound 0.00316 µM, first compound 0.1 µM
# [3] = second compound 0.00316 µM, first compound 0.316 µM
# [4] = second compound 0.00316 µM, first compound 1 µM
# [5] = second compound 0.00316 µM, first compound 3.16 µM
# [6] = second compound 0.00316 µM, first compound 10 µM
# [7] = second compound 0.01 µM, first compound 0.0316 µM
# [8] = second compound 0.01 µM, first compound 0.1 µM
# [9] = second compound 0.01 µM, first compound 0.316 µM
# [10] = second compound 0.01 µM, first compound 1 µM
# [11] = second compound 0.01 µM, first compound 3.16 µM
# [12] = second compound 0.01 µM, first compound 10 µM
# [13] = second compound 0.0316 µM, first compound 0.0316 µM
# [14] = second compound 0.0316 µM, first compound 0.1 µM
# [15] = second compound 0.0316 µM, first compound 0.316 µM
# [16] = second compound 0.0316 µM, first compound 1 µM
# [17] = second compound 0.0316 µM, first compound 3.16 µM
# [18] = second compound 0.0316 µM, first compound 10 µM
# [19] = second compound 0.1 µM, first compound 0.0316 µM
# [20] = second compound 0.1 µM, first compound 0.1 µM
# [21] = second compound 0.1 µM, first compound 0.316 µM
# [22] = second compound 0.1 µM, first compound 1 µM
# [23] = second compound 0.1 µM, first compound 3.16 µM
# [24] = second compound 0.1 µM, first compound 10 µM
# [25] = second compound 0.316 µM, first compound 0.0316 µM
# [26] = second compound 0.316 µM, first compound 0.1 µM
# [27] = second compound 0.316 µM, first compound 0.316 µM
# [28] = second compound 0.316 µM, first compound 1 µM
# [29] = second compound 0.316 µM, first compound 3.16 µM
# [30] = second compound 0.316 µM, first compound 10 µM
# [31] = second compound 1 µM, first compound 0.0316 µM
# [32] = second compound 1 µM, first compound 0.1 µM
# [33] = second compound 1 µM, first compound 0.316 µM
# [34] = second compound 1 µM, first compound 1 µM
# [35] = second compound 1 µM, first compound 3.16 µM
# [36] = second compound 1 µM, first compound 10 µM
# 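Also: compound exposure lasted 7 days starting three days after spheroid seeding.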
# 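For viability, T/C in this document: 100% = DMSO vehicle control wells with viability set relative to vehicle.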
smiles,measurement,setting,value
C#Cc1c(F)ccc2cc(O)cc(-c3ncc4c(N5CC6CCC(C5)N6)nc(OCC56CCCN5CC(F)C6)nc4c3F)c12 (stereo unspecified) + CNC(C)C(=O)NC1CN(S(=O)(=O)c2cccc(S(=O)(=O)N3CCC4CCC(C(=O)NC(c5ccccc5)c5ccccc5)N4C(=O)C(NC(=O)C(C)NC)C3)c2)CCC2CCC(C(=O)NC(c3ccccc3)c3ccccc3)N2C1=O,IC50,second compound 0.00316 µM,> 10 µM
same,IC50,second compound 0.01 µM,> 10 µM
same,IC50,second compound 0.0316 µM,> 10 µM
same,IC50,second compound 0.1 µM,> 10 µM
same,IC50,second compound 0.316 µM,> 10 µM
same,IC50,second compound 1 µM,> 10 µM
same,"viability, T/C",[1],109%
same,"viability, T/C",[2],92.7%
same,"viability, T/C",[3],94.1%
same,"viability, T/C",[4],94.9%
same,"viability, T/C",[5],70.2%
same,"viability, T/C",[6],61.8%
same,"viability, T/C",[7],117%
same,"viability, T/C",[8],102%
same,"viability, T/C",[9],96.4%
same,"viability, T/C",[10],87.4%
same,"viability, T/C",[11],74.2%
same,"viability, T/C",[12],63.2%
same,"viability, T/C",[13],127%
same,"viability, T/C",[14],102%
same,"viability, T/C",[15],106%
same,"viability, T/C",[16],89.7%
same,"viability, T/C",[17],70.4%
same,"viability, T/C",[18],58.3%
same,"viability, T/C",[19],101%
same,"viability, T/C",[20],96.6%
same,"viability, T/C",[21],95.4%
same,"viability, T/C",[22],91.2%
same,"viability, T/C",[23],62.3%
same,"viability, T/C",[24],70.2%
same,"viability, T/C",[25],101%
same,"viability, T/C",[26],95.1%
same,"viability, T/C",[27],96.5%
same,"viability, T/C",[28],82.4%
same,"viability, T/C",[29],74%
same,"viability, T/C",[30],65.4%
same,"viability, T/C",[31],90.9%
same,"viability, T/C",[32],105%
same,"viability, T/C",[33],92.9%
same,"viability, T/C",[34],91%
same,"viability, T/C",[35],66.8%
same,"viability, T/C",[36],53.2%
C=C(F)C(=O)N1CCN(c2nc(OCC3CCCN3C)nc3c2CCN(c2cccc4cccc(Cl)c24)C3)CC1CC#N (stereo unspecified) + CNC(C)C(=O)NC1CN(S(=O)(=O)c2cccc(S(=O)(=O)N3CCC4CCC(C(=O)NC(c5ccccc5)c5ccccc5)N4C(=O)C(NC(=O)C(C)NC)C3)c2)CCC2CCC(C(=O)NC(c3ccccc3)c3ccccc3)N2C1=O,IC50,second compound 0.00316 µM,3.55 µM
same,IC50,second compound 0.01 µM,3.55 µM
same,IC50,second compound 0.0316 µM,3.7 µM
same,IC50,second compound 0.1 µM,3.45 µM
same,IC50,second compound 0.316 µM,3.72 µM
same,IC50,second compound 1 µM,3.38 µM
same,"viability, T/C",[1],54.3%
same,"viability, T/C",[2],48.5%
same,"viability, T/C",[3],50.5%
same,"viability, T/C",[4],56.1%
same,"viability, T/C",[5],67.9%
same,"viability, T/C",[6],0.23%
same,"viability, T/C",[7],62.3%
same,"viability, T/C",[8],44.2%
same,"viability, T/C",[9],48.8%
same,"viability, T/C",[10],56.6%
same,"viability, T/C",[11],66.3%
same,"viability, T/C",[12],0.24%
same,"viability, T/C",[13],55.8%
same,"viability, T/C",[14],54.8%
same,"viability, T/C",[15],47.1%
same,"viability, T/C",[16],55.4%
same,"viability, T/C",[17],76%
same,"viability, T/C",[18],0.21%
same,"viability, T/C",[19],52%
same,"viability, T/C",[20],46.7%
same,"viability, T/C",[21],48.5%
same,"viability, T/C",[22],53.4%
same,"viability, T/C",[23],69.9%
same,"viability, T/C",[24],0.25%
same,"viability, T/C",[25],55.5%
same,"viability, T/C",[26],53.6%
same,"viability, T/C",[27],59.5%
same,"viability, T/C",[28],53.8%
same,"viability, T/C",[29],68.3%
same,"viability, T/C",[30],0.21%
same,"viability, T/C",[31],56.8%
same,"viability, T/C",[32],49.1%
same,"viability, T/C",[33],38.6%
same,"viability, T/C",[34],56%
same,"viability, T/C",[35],65%
same,"viability, T/C",[36],0.22%
CCN1C(C(=O)NC23CCC(C(=O)O)(CC2)CC3)C(c2cccc(Cl)c2F)C2(C(=O)Nc3cc(Cl)ccc32)C12CCCCC2 (stereo unspecified) + CNC(C)C(=O)NC1CN(S(=O)(=O)c2cccc(S(=O)(=O)N3CCC4CCC(C(=O)NC(c5ccccc5)c5ccccc5)N4C(=O)C(NC(=O)C(C)NC)C3)c2)CCC2CCC(C(=O)NC(c3ccccc3)c3ccccc3)N2C1=O,IC50,second compound 0.00316 µM,> 3 µM
same,IC50,second compound 0.01 µM,> 3 µM
same,IC50,second compound 0.0316 µM,> 3 µM
same,IC50,second compound 0.1 µM,> 3 µM
same,IC50,second compound 0.316 µM,> 3 µM
same,IC50,second compound 1 µM,> 3 µM
same,"viability, T/C","second compound 0.00316 µM, first compound 0.00949 µM",107%
same,"viability, T/C","second compound 0.00316 µM, first compound 0.03 µM",93.6%
same,"viability, T/C","second compound 0.00316 µM, first compound 0.0949 µM",98.2%
same,"viability, T/C","second compound 0.00316 µM, first compound 0.3 µM",93.1%
same,"viability, T/C","second compound 0.00316 µM, first compound 0.949 µM",105%
same,"viability, T/C","second compound 0.00316 µM, first compound 3 µM",89.3%
same,"viability, T/C","second compound 0.01 µM, first compound 0.00949 µM",110%
same,"viability, T/C","second compound 0.01 µM, first compound 0.03 µM",97.8%
same,"viability, T/C","second compound 0.01 µM, first compound 0.0949 µM",101%
same,"viability, T/C","second compound 0.01 µM, first compound 0.3 µM",93.5%
same,"viability, T/C","second compound 0.01 µM, first compound 0.949 µM",97%
same,"viability, T/C","second compound 0.01 µM, first compound 3 µM",89.7%
same,"viability, T/C","second compound 0.0316 µM, first compound 0.00949 µM",99.9%
same,"viability, T/C","second compound 0.0316 µM, first compound 0.03 µM",99.1%
same,"viability, T/C","second compound 0.0316 µM, first compound 0.0949 µM",105%
same,"viability, T/C","second compound 0.0316 µM, first compound 0.3 µM",101%
same,"viability, T/C","second compound 0.0316 µM, first compound 0.949 µM",92.2%
same,"viability, T/C","second compound 0.0316 µM, first compound 3 µM",82.7%
same,"viability, T/C","second compound 0.1 µM, first compound 0.00949 µM",116%
same,"viability, T/C","second compound 0.1 µM, first compound 0.03 µM",97.7%
same,"viability, T/C","second compound 0.1 µM, first compound 0.0949 µM",97.8%
same,"viability, T/C","second compound 0.1 µM, first compound 0.3 µM",104%
same,"viability, T/C","second compound 0.1 µM, first compound 0.949 µM",87.5%
same,"viability, T/C","second compound 0.1 µM, first compound 3 µM",83.9%
same,"viability, T/C","second compound 0.316 µM, first compound 0.00949 µM",93%
same,"viability, T/C","second compound 0.316 µM, first compound 0.03 µM",81.6%
same,"viability, T/C","second compound 0.316 µM, first compound 0.0949 µM",94.8%
same,"viability, T/C","second compound 0.316 µM, first compound 0.3 µM",93.3%
same,"viability, T/C","second compound 0.316 µM, first compound 0.949 µM",95.7%
same,"viability, T/C","second compound 0.316 µM, first compound 3 µM",86.2%
same,"viability, T/C","second compound 1 µM, first compound 0.00949 µM",90.8%
same,"viability, T/C","second compound 1 µM, first compound 0.03 µM",87.6%
same,"viability, T/C","second compound 1 µM, first compound 0.0949 µM",94.7%
same,"viability, T/C","second compound 1 µM, first compound 0.3 µM",85.5%
same,"viability, T/C","second compound 1 µM, first compound 0.949 µM",89.5%
same,"viability, T/C","second compound 1 µM, first compound 3 µM",76.6%
